Source: paper PMC4257840 (Journal of Medicinal Chemistry, 2014)

Tests used:
[1] = biological target: human liver Cat B (Homo sapiens, UniProt P07858); assay: Cathepsin B inhibition assay; conditions: read-out: Cat B IC50; mean ± SE
[2] = system: rat alveolar macrophage line NR8383; assay: Stability in the presence of airway macrophages; format: in vitro ADME
[3] = biological target: T1, Der p 1 (Dermatophagoides pteronyssinus, UniProt P08176); assay: biochemical; format: biochemical; conditions: mean ± SE
T1 sequence (P08176 99-320): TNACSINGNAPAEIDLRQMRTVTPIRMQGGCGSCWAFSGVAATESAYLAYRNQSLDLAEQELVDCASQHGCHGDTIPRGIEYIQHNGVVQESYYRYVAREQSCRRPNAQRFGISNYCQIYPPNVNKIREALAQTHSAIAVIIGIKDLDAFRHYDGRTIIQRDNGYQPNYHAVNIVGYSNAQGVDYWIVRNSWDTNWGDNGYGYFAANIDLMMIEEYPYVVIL

[4] = Measurement of LogD7.4 (n-octanol/PBS shake); format: physicochemical; conditions: for logD at 1.5 h: single determination, n-octanol/PBS pH 7.4, read-out: Log D7.4
Experimental: Appendix 4. Measurement of LogD7.4
Test compounds (~1 mg) were weighed into 2 mL HPLC vials. n- Octanol (0.7 mL), pre-saturated with 10 mM phosphate buffered saline pH7.4 (PBS), was added to each vial followed b y PBS (0. 7 mL), which had been pre-saturat ed with n-octanol. The mixtures were shaken for 90 min and then centrifuged for 10 min at 4,000 rpm. The upper organic l ayer (0.2 m L) and the aqueous la yer (0.5 mL) were removed from each vial and anal yz e d b y LC -MS. Mass spect ral anal ysis was used to confirm peak identity whilst the concentration of compound was assessed by a diode arra y det ecto r. The logD for each compound was calculated b y takin g th e lo g of its concentration ratio between the oct anol and aqueous la ye r s.Given the robustness of the assa y and the fact that the info rmation was us ed onl y for gen eral guid ance, thes e measu rements were based on singlicate det erminations.

[5] = Pharmacokinetics after oral and iv dosing to rats; format: in vivo, Sprague-Dawley rat; conditions: rat; for Cmax / bioavailability: male, Sprague-Dawley, plasma, mean ± SE, n = 3; for Cmax / free conc Cmax: 5 mg/kg po; for bioavailability: po, 5 mg/kg, 5 mg/kg po compared with 1 mg/kg iv, nonfasted Sprague–Dawley rats, read-out: F % (bioavailability)
Experimental: (§1) Appendix 2. Pharmaco kinetics an d P l a s ma Protein Binding […]
Pharma cokinetics. In vivo PK characteristics were determined using non- fasted Sprague-Dawle y rats (mal e, 200-300 g, 10- 16 weeks of age) with groups of three animals per route per compound. Soluble formulations were developed and verified b y HP LC/UV s o that compounds were dosed discretel y b y the iv (1 mg/kg, 1 mL/kg) and po (5 mg/kg, 5 mL/kg) routes. Blood samples were obtained at various times after dosing and plasma prepared for LC -MS-MS quantification of the test substance after inclusion of an intern al standard . PK p aramet ers were calculated usin g a non -compartmental model in WinNonlin v5.2.
(§2) Plasma Protein Binding Assay. PPB was determined with a Rapid Equilibrium Dialysis device using 8 kDa molecular weight cut-off inserts (Fisher Scientific UK Ltd, Leicest ershire, UK) as described b y the manufacturer. R at (Sprague Dawl e y strain) plasma EDTA K2 (mixed gender, pooled, SeraLab, West Sussex, UK) was thawed and centrifuged at 13,000 x g for 10 min to remove precipitates before being spiked with compounds (5 µM). The concentrations of compounds in the plasma and buffer chambers were determined b y LC -MS-MS (AB Sciex 3200 QTrap) anal ysis after 4 h incubation at 37 °C. Binding was calculated from the concentration percentage in both chambers as shown below. Assays were p erfo rmed in replicate and the data

[6] = Plasma protein binding, Rapid Equilibrium Dialysis; format: in vitro ADME; conditions: both sexes, Sprague Dawley, plasma (EDTA K2, pooled), rat plasma, 4 h at 37 °C, read-out: PPB (converted)
Experimental: as §1, §2

[7] = system: nonsensitized rats challenged with a natural mixture of HDM allergens; conditions: i.t. aerosol typically 60-360 min prior to allergen challenge, unsensitised BN rats

| degraded by airway macrophages ([2]; over a 2 h period) [%] | SMILES | IC50 [1] [nM] | remaining unchanged (processing by airway macrophages) ([2]; after 2 h) [%] | IC50 [3] [nM] | logD at 1.5 h [4] | Cmax [5] [nM] | bioavailability [5] [%] | free conc Cmax [5] [nM] | fraction unbound at 4 h, 5 µM [6] | duration of protection: trend of inhibition of eosinophil recruitment with increasing pre-treatment interval [7] | logD ([4]; pH 7.4, versus compound 22, read-out: reduction of measured log D on replacing cyclohexyl (22) by cyclopropyl) |
| --- | --- | --- | --- | --- | --- | --- | --- | --- | --- | --- | --- |
| – | CC(C)C(NC(=O)[C@H](C)NC(=O)[C@H](Cc1ccccc1)NC(=O)c1ccccc1)C(=O)C(=O)NC1CCCCC1 (mixture of isomers) [Compound 19] | 52 ± 5 | ~70 | 18 ± 2 | – | – | – | – | – | – | – |
| > 50 | CCCC[C@H](NC(=O)[C@H](C)NC(=O)[C@H](Cc1ccccc1)NC(=O)c1ccccc1)C(=O)C(=O)NC1CCCCC1 [Compound 5, N-{(S)-1-[(S)-1-((S)-1-Cyclohexylaminooxalyl-pentylcarbamoyl)-ethylcarbamoyl]-2-phenyl-ethyl}-benzamide] | – | – | – | – | – | – | – | – | – | – |
| – | CC(C)[C@H](NC(=O)[C@H](C)NC(=O)[C@@H](N1Cc2ccccc2C1=O)C(C)(C)C)C(=O)C(=O)NCc1ccccc1 [Compound 28, (S)-3-{(S)-2-[(S)-3,3-Dimethyl-2-(1-oxo-1,3-dihydro-isoindol-2-yl)-butyrylamino]-propionylamino}-4-methyl-2-oxo-pentanoic Acid Benzylamide] | 429 ± 65 | – | 7 ± 1 | 3.6 | 663 ± 26 | 20 ± 1 | 11 ± 0 | 0.02 | – | – |
| – | CC(C)[C@H](NC(=O)[C@H](C)NC(=O)[C@@H](NC(=O)c1ccncc1)C(C)(C)C)C(=O)C(=O)NC1CCCCC1 [Compound 29, N-{(S)-1-[(S)-1-((S)-1-Cyclohexylaminooxalyl-2-methyl-propylcarbamoyl)-ethylcarbamoyl]-2,2-dimethyl-propyl}-isonicotinamide] | 231 ± 17 | – | 13 ± 1 | 2.8 | – | – | – | – | rise to a peak | – |
| – | CC(C)[C@H](NC(=O)[C@H](C)NC(=O)[C@@H](NC(=O)c1ccccc1)C(C)(C)C)C(=O)C(=O)NC1CC1 [Compound 35] | 417 ± 25 | – | 17 ± 1 | 2.4 | 1140 ± 268 | 90 ± 11 | 176 ± 0 | 0.155 | rise to well-maintained | ~1.5 |
| – | CC(C)[C@H](NC(=O)[C@H](C)NC(=O)[C@H](Cc1ccccc1)NC(=O)c1ccccc1)C(=O)C(=O)NCC(=O)N1CCN(C)CC1 [Compound 45, N-[(S)-1-((S)-1-{(S)-2-Methyl-1-[2-(4-methyl-piperazin-1-yl)-2-oxo-ethylaminooxalyl]-propylcarbamoyl}-ethylcarbamoyl)-2-phenyl-ethyl]-benzamide] | 544 ± 40 | – | 14 ± 1 | 1.3 | – | – | – | – | waned | – |
| – | CC(C)[C@H](NC(=O)[C@H](C)NC(=O)[C@H](Cc1ccccc1)NC(=O)c1ccccc1)C(=O)C(=O)NCC(=O)N1CCOCC1 [Compound 47, N-((S)-1-{(S)-1-[(S)-2-Methyl-1-(2-morpholin-4-yl-2-oxo-ethylaminooxalyl)-propylcarbamoyl]-ethylcarbamoyl}-2-phenyl-ethyl)-benzamide] | 88 ± 10 | – | 9 ± 1 | 1.7 | – | – | – | – | rise to a peak | – |
| – | CC(C)[C@H](NC(=O)[C@H](C)NC(=O)[C@H](Cc1ccccc1)NC(=O)c1cccc2ccccc12)C(=O)C(=O)NCC(=O)N1CCN(C)CC1 [Compound 53, Naphthalene-1-carboxylic Acid [(S)-1-((S)-1-{(S)-2-Methyl-1-[2-(4-methyl-piperazin-1-yl)-2-oxo-ethylaminooxalyl]-propylcarbamoyl}-ethylcarbamoyl)-2-phenyl-ethyl]-amide] | 540 ± 28 | – | 20 ± 3 | 2 | – | – | – | – | waned | – |
